Assay results: PubChem BioAssay (NCI)
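48-hour exposure; five concentrations; linearly interpolated endpoints. Definition used: TGI = concentration required for complete inhibition of growth.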

Key:
Assay in all cases: NCI-60 cell line screen, 48 h
786-0 renal = system: 786-0 renal
A498 renal = system: A498 renal
A549 NSCLC = system: A549 NSCLC
ACHN renal = system: ACHN renal
BT-549 breast = system: BT-549 breast
CAKI-1 renal = system: CAKI-1 renal
CCRF-CEM leukemia = system: CCRF-CEM leukemia
COLO 205 colon = system: COLO 205 colon
DU-145 prostate = system: DU-145 prostate
EKVX NSCLC = system: EKVX NSCLC
HCC-2998 colon = system: HCC-2998 colon
HCT-116 colon = system: HCT-116 colon
HCT-15 colon = system: HCT-15 colon
HL-60(TB) leukemia = system: HL-60(TB) leukemia
HOP-92 NSCLC = system: HOP-92 NSCLC
HS 578T breast = system: HS 578T breast
HT29 colon = system: HT29 colon
IGROV1 ovarian = system: IGROV1 ovarian
K-562 leukemia = system: K-562 leukemia
KM12 colon = system: KM12 colon
LOX IMVI melanoma = system: LOX IMVI melanoma
M14 melanoma = system: M14 melanoma
MALME-3M melanoma = system: MALME-3M melanoma
MCF7 breast = system: MCF7 breast
MDA-MB-231 breast = system: MDA-MB-231 breast
MDA-MB-435 = system: MDA-MB-435
MDA-N = system: MDA-N
MOLT-4 leukemia = system: MOLT-4 leukemia
NCI-H226 lung = system: NCI-H226 lung
NCI-H23 lung = system: NCI-H23 lung
NCI-H460 lung = system: NCI-H460 lung
NCI/ADR-RES ovarian = system: NCI/ADR-RES ovarian
OVCAR-3 ovarian = system: OVCAR-3 ovarian
OVCAR-4 ovarian = system: OVCAR-4 ovarian
OVCAR-5 ovarian = system: OVCAR-5 ovarian
OVCAR-8 ovarian = system: OVCAR-8 ovarian
PC-3 prostate = system: PC-3 prostate
RPMI-8226 leukemia = system: RPMI-8226 leukemia
RXF 393 renal = system: RXF 393 renal
SF-268 CNS = system: SF-268 CNS
SF-295 CNS = system: SF-295 CNS
SF-539 CNS = system: SF-539 CNS
SK-MEL-2 melanoma = system: SK-MEL-2 melanoma
SK-MEL-28 melanoma = system: SK-MEL-28 melanoma
SK-MEL-5 melanoma = system: SK-MEL-5 melanoma
SK-OV-3 ovarian = system: SK-OV-3 ovarian
SNB-19 CNS = system: SNB-19 CNS
SNB-75 CNS = system: SNB-75 CNS
SR leukemia = system: SR leukemia
SW-620 colon = system: SW-620 colon
T-47D breast = system: T-47D breast
TK-10 renal = system: TK-10 renal
U251 CNS = system: U251 CNS
UACC-257 melanoma = system: UACC-257 melanoma
UACC-62 melanoma = system: UACC-62 melanoma
UO-31 renal = system: UO-31 renal
HOP-62 NSCLC = system: HOP-62 NSCLC
NCI-H522 lung = system: NCI-H522 lung
SN12C renal = system: SN12C renal

## CN(C(=O)CCC(=O)O)c1ccccc1C(=O)O
786-0 renal
  TGI: > 100 µM
A498 renal
  TGI: > 100 µM
A549 NSCLC
  TGI: > 100 µM
ACHN renal
  TGI: > 100 µM
BT-549 breast
  TGI: > 100 µM
CAKI-1 renal
  TGI: > 100 µM
CCRF-CEM leukemia
  TGI: > 100 µM
COLO 205 colon
  TGI: > 100 µM
DU-145 prostate
  TGI: > 100 µM
EKVX NSCLC
  TGI: > 100 µM
HCC-2998 colon
  TGI: > 100 µM
HCT-116 colon
  TGI: > 100 µM
HCT-15 colon
  TGI: > 100 µM
HL-60(TB) leukemia
  TGI: > 100 µM
HOP-92 NSCLC
  TGI: > 100 µM
HS 578T breast
  TGI: > 100 µM
HT29 colon
  TGI: > 100 µM
IGROV1 ovarian
  TGI: > 100 µM
K-562 leukemia
  TGI: > 100 µM
KM12 colon
  TGI: > 100 µM
LOX IMVI melanoma
  TGI: > 100 µM
M14 melanoma
  TGI: > 100 µM
MALME-3M melanoma
  TGI: > 100 µM
MCF7 breast
  TGI: > 100 µM
MDA-MB-231 breast
  TGI: > 100 µM
MDA-MB-435
  TGI: > 100 µM
MDA-N
  TGI: > 100 µM
MOLT-4 leukemia
  TGI: > 100 µM
NCI-H226 lung
  TGI: > 100 µM
NCI-H23 lung
  TGI: > 100 µM
NCI-H460 lung
  TGI: > 100 µM
NCI/ADR-RES ovarian
  TGI: > 100 µM
OVCAR-3 ovarian
  TGI: > 100 µM
OVCAR-4 ovarian
  TGI: > 100 µM
OVCAR-5 ovarian
  TGI: > 100 µM
OVCAR-8 ovarian
  TGI: > 100 µM
PC-3 prostate
  TGI: > 100 µM
RPMI-8226 leukemia
  TGI: > 100 µM
RXF 393 renal
  TGI: > 100 µM
SF-268 CNS
  TGI: > 100 µM
SF-295 CNS
  TGI: > 100 µM
SF-539 CNS
  TGI: > 100 µM
SK-MEL-2 melanoma
  TGI: > 100 µM
SK-MEL-28 melanoma
  TGI: > 100 µM
SK-MEL-5 melanoma
  TGI: > 100 µM
SK-OV-3 ovarian
  TGI: > 100 µM
SNB-19 CNS
  TGI: > 100 µM
SNB-75 CNS
  TGI: > 100 µM
SR leukemia
  TGI: > 100 µM
SW-620 colon
  TGI: > 100 µM
T-47D breast
  TGI: > 100 µM
TK-10 renal
  TGI: > 100 µM
U251 CNS
  TGI: > 100 µM
UACC-257 melanoma
  TGI: > 100 µM
UACC-62 melanoma
  TGI: > 100 µM
UO-31 renal
  TGI: > 100 µM

## CCOC(=O)c1cn2c(n1)sc1cc(C)c(C)cc12
786-0 renal
  TGI: 34.9 µM
A498 renal
  TGI: 32.6 µM
A549 NSCLC
  TGI: 38.2 µM
ACHN renal
  TGI: 35.3 µM
BT-549 breast
  TGI: 72.4 µM
CAKI-1 renal
  TGI: 39.4 µM
CCRF-CEM leukemia
  TGI: > 100 µM
COLO 205 colon
  TGI: 55 µM
DU-145 prostate
  TGI: 48.8 µM
EKVX NSCLC
  TGI: 61.7 µM
HCC-2998 colon
  TGI: > 100 µM
HCT-116 colon
  TGI: 33.7 µM
HCT-15 colon
  TGI: > 100 µM
HOP-62 NSCLC
  TGI: 34.3 µM
HOP-92 NSCLC
  TGI: 65.4 µM
HS 578T breast
  TGI: 79.3 µM
HT29 colon
  TGI: 33.8 µM
IGROV1 ovarian
  TGI: 56.5 µM
K-562 leukemia
  TGI: > 100 µM
KM12 colon
  TGI: > 100 µM
LOX IMVI melanoma
  TGI: > 100 µM
M14 melanoma
  TGI: 85.2 µM
MALME-3M melanoma
  TGI: 35.1 µM
MCF7 breast
  TGI: > 100 µM
MDA-MB-231 breast
  TGI: 58.4 µM
MDA-MB-435
  TGI: > 100 µM
MDA-N
  TGI: 22 µM
MOLT-4 leukemia
  TGI: 91.1 µM
NCI-H226 lung
  TGI: 44.9 µM
NCI-H23 lung
  TGI: > 100 µM
NCI-H460 lung
  TGI: > 100 µM
NCI-H522 lung
  TGI: 94.4 µM
NCI/ADR-RES ovarian
  TGI: 67.5 µM
OVCAR-3 ovarian
  TGI: 32.5 µM
OVCAR-4 ovarian
  TGI: > 100 µM
OVCAR-5 ovarian
  TGI: 36.4 µM
OVCAR-8 ovarian
  TGI: 52.3 µM
PC-3 prostate
  TGI: 45.7 µM
RPMI-8226 leukemia
  TGI: 82.7 µM
RXF 393 renal
  TGI: 51.2 µM
SF-268 CNS
  TGI: 52.7 µM
SF-295 CNS
  TGI: > 100 µM
SF-539 CNS
  TGI: 29.6 µM
SK-MEL-2 melanoma
  TGI: > 100 µM
SK-MEL-28 melanoma
  TGI: 48.4 µM
SK-MEL-5 melanoma
  TGI: 32.1 µM
SK-OV-3 ovarian
  TGI: 69.2 µM
SN12C renal
  TGI: 36.8 µM
SNB-19 CNS
  TGI: 42.9 µM
SNB-75 CNS
  TGI: 44.8 µM
SR leukemia
  TGI: > 100 µM
SW-620 colon
  TGI: 65.1 µM
T-47D breast
  TGI: 62.1 µM
TK-10 renal
  TGI: 57.1 µM
U251 CNS
  TGI: 41.2 µM
UACC-257 melanoma
  TGI: > 100 µM
UACC-62 melanoma
  TGI: > 100 µM
UO-31 renal
  TGI: 35.4 µM
